Measurements taken from the METLIN SMRT retention time set (Domingo-Almenara et al. 2019).

Test: gradient 5% acetonitrile 3 min, to 50% in 2 min, to 85% in 15 min, held 3 min, 100 µL/min
Settings: column: Zorbax Extend-C18 2.1 x 50 mm; eluents: water / acetonitrile, 0.1% formic acid
In short: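 Each retention time is based on an adduct peak selected computationally and verified by manual inspection. Measurements used HPLC–quadrupole time-of-flight mass spectrometry in positive and negative ionization mode on mixtures of ~100 pure standards. Chromatography ran on a Zorbax Extend-C18 column (2.1 × 50 mm, 1.8 μm) at 100 μL/min with water and acetonitrile, each containing 0.1% formic acid, and dead and dwell volumes of 40 μL and 900 μL.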

| Structure (SMILES) | RP-LC retention time [s] |
| --- | --- |
| Cc1ccc(N2CC(c3nc(-c4ccc(Cl)cc4)no3)CC2=O)cc1 (stereo unspecified) | 1010 |
| CCOC(=O)c1ncn2c1[C@@H]1CCCN1C(=O)c1cc(OC)ccc1-2 | 758 |
| CCOC(=O)c1c(C)[nH]c(C(=O)N2CCCC(C(=O)NCCCN3CCN(CC)CC3)C2)c1C (stereo unspecified) | 579 |
| CCn1cc(-c2nc(C)c(C(=O)NCc3cccs3)s2)c2cccnc21 | 926 |
| Cc1ccccc1-n1c(Cn2ncc3c(N)ncnc32)nc2cccc(C)c2c1=O | 719 |
| CCc1nn2c(CNS(=O)(=O)Cc3cccc(Cl)c3)c(-c3ccccc3)nc2s1 | 1010 |
| Cc1ccc(-n2ncc3c(=O)n(Cc4nc(-c5ccccc5)no4)cnc32)cc1Cl | 1190 |
| c1ccc(-c2nc(C3CCOCC3)no2)c(OC2CCN(C3CCCC3)C2)c1 (stereo unspecified) | 661 |
| COc1ccc(OC)c(CNC(=O)c2nnc(-c3ccc(S(=O)(=O)N(C)C)cc3)o2)c1 | 854 |
| O=C(Nc1ccc(Nc2ccccc2)cc1)Nc1ccccc1Cl | 1130 |
| COc1ccc(-c2noc(-c3ccc(N4CCN(c5ncccn5)CC4)nn3)n2)cc1 | 923 |
| COCc1cc(=O)n(Cc2ncc(C)c(OC)c2C)c(N2CCCC2)n1 | 608 |
| O=C(c1cccn2c(=O)c3c4c(sc3nc12)CCCC4)N1CCN(c2ccccn2)CC1 | 656 |
| COc1ccc(NS(=O)(=O)c2c(C)nn(-c3ccc(-c4ccccc4)nn3)c2C)cc1OC | 895 |
| COc1ccc(-c2noc(Cc3nc(-c4ccc(Br)cc4)cs3)n2)cc1OC | 1200 |
| CCc1nn2c(CNC(=O)c3cccc(OC)c3)c(-c3ccccc3)nc2s1 | 885 |
| COCC(=O)NC1CCC12CCN(C(=O)CC1CCCC1)CC2 (stereo unspecified) | 722 |
| COc1ccc2c(n1)Sc1nc3ccccc3nc1N2 | 1040 |
| CCOc1ccc(N2C=C(C(=O)OC)S(=O)(=O)c3ccccc32)cc1 | 887 |
| CCOCCCNC(=O)N1CC(c2nc(C)no2)C2(CCOCC2)C1 (stereo unspecified) | 616 |
| NC(=O)c1nsc2c(=O)n(CC(=O)NCc3ccco3)cnc12 | 589 |
| CN1C(=O)C(c2c(-c3ccc4ccccc4c3)[nH]c3[nH]c(=O)[nH]c(=O)c23)c2ccccc21 (stereo unspecified) | 721 |
| CCCn1cc(S(=O)(=O)Nc2cc(Cl)ccc2OC)c2cccnc21 | 995 |
| CCn1cc(-c2nc(CC(=O)Nc3ccc(F)c(Cl)c3)cs2)c2cccnc21 | 1020 |
| NS(=O)(=O)c1ccc(CCNC(=O)c2cnc3sccn3c2=O)cc1 | 568 |
| CC12C=CC(O1)C1C(=O)N(c3ccc(N4CCOCC4)cc3)C(=O)C12 (stereo unspecified) | 662 |
| Cc1cnc(-c2ccccc2C(C)C)nc1NCc1ccc(-n2ccnn2)cc1 | 770 |
| CC(C)CC(=O)N1CC(c2nc(-c3ccccc3)no2)C2(CCOCC2)C1 (stereo unspecified) | 896 |
| COc1cc(-c2noc(CN3C(=O)COc4cc(C)ccc43)n2)cc(OC)c1OC | 974 |
| CCn1cc(CNC(=O)c2cc(-c3ccc4c(c3)OCO4)nc3ccccc23)c(C)n1 | 818 |

Continued, values first:

| RP-LC retention time [s] | Structure (SMILES) |
| --- | --- |
| 1090 | Cc1nn(CC(=O)NC2CCCCCC2)c(=O)c2c(-n3cccc3)n(-c3cccc(F)c3)nc12 |
| 1020 | COC(=O)c1sc2ccccc2c1NC(=O)c1cccc(OC)c1OC |
| 687 | COc1ccc2c(=O)c(Oc3ccc(C(=O)NC4CCS(=O)(=O)C4)cc3)coc2c1 (stereo unspecified) |
| 823 | COc1cc(=O)n2c(c1C(=O)Nc1ccc(Cl)c(Cl)c1)CCCC2 |
| 949 | COc1ccc2[nH]c3c(c2c1)CCN(C(=O)C1CC1)C3c1ccc(F)cc1 (stereo unspecified) |
| 728 | CCc1noc(NC(C)=O)c1-c1ccc(C)c(S(=O)(=O)NC2CC2)c1 |
| 635 | CNC(=O)C1CCCN1C(=O)Nc1cccc(C)c1 (stereo unspecified) |
| 810 | CCCNC(=O)C1CCN(c2cc(SCC(=O)Nc3cccc(CC)c3)ncn2)CC1 |
| 604 | Cc1occc1C(=O)NC1CCc2nn(C)c(=O)n2CC1 (stereo unspecified) |
| 886 | Cc1ccc(Nc2nc(C)cc(N3CCN(S(=O)(=O)c4cccc(C(F)(F)F)c4)CC3)n2)cc1 |
| 586 | CN(C)C[C@@H]1CN(Cc2ccccc2)C[C@H]1NS(=O)(=O)c1cccc(F)c1 |
| 793 | Cc1[nH]c(C(=O)N2CCN(c3ccccc3F)CC2)c(C)c1S(=O)(=O)N1CCOCC1 |
| 708 | COc1cccc(NC(=O)Cn2c(C)nc3onc(C)c3c2=O)c1 |
| 732 | COc1cccc(-c2cn3c(C(=O)Nc4ncccc4C)csc3n2)c1 |
| 1340 | Cc1cccc(-c2noc(C3CCCN3S(=O)(=O)c3ccc4c(c3)CCCC4)n2)c1 (stereo unspecified) |
| 629 | CNC(=O)N1CCCC1c1nc(C2CN(C(=O)c3cccn3C)C2)no1 (stereo unspecified) |
| 781 | CCCNC(=O)C1CCN(c2cc(SCC(=O)Nc3ccc(C(=O)OCC)cc3)ncn2)CC1 |
| 706 | CCNC(=O)Nc1ccc2c(c1)CN(C(=O)Nc1ccc3c(c1)OCCO3)CCO2 |

| RP-LC retention time [s] | Structure (SMILES) |
| --- | --- |
| 838 | CCc1cc(C(=O)N2CCOCC2)nc2cc(-c3cccs3)nn12 |
| 680 | O=C(NC1CCN(Cc2ccccc2)CC1)C1CCCN(c2nccnc2Oc2ccccc2)C1 (stereo unspecified) |
| 690 | CS(=O)(=O)N1CCCC1C(=O)Nc1ccccc1 (stereo unspecified) |
| 744 | CC(=O)c1cccc(NC2=NS(=O)(=O)c3ccccc32)c1 |
| 984 | Cc1cc(Cl)ccc1N1C(=O)CN(S(C)(=O)=O)CC1(C)C(=O)NC1CCCCCC1 (stereo unspecified) |
| 946 | O=C(c1cccs1)N1CCCC1c1nc(-c2ccccc2)no1 (stereo unspecified) |
| 835 | Cc1cc(NC(=O)c2ccc3c(c2)CCCC3)n(C(C)C)n1 |
| 697 | O=C(c1ccc(OCC2CCN(C(=O)c3ccoc3)CC2)cc1)N1CCOCC1 |
| 875 | CN(C)c1ccc(N2C=C(C(=O)N3CCOCC3)S(=O)(=O)c3ccc(Cl)cc32)cc1 |
| 931 | CCc1cccc(NC(=O)C2(Cc3ccccc3)CCCCC(=O)N2)c1 (stereo unspecified) |
| 967 | CC(=O)Nc1ccc(S(=O)(=O)N2CCC3(CC2)Nc2cc(F)ccc2-n2cccc23)cc1 |
| 751 | O=C(Nc1cccc(C(F)(F)F)c1)N1CCCC(Cn2cnc3cccnc32)C1 (stereo unspecified) |
| 859 | Cc1cc(NC(=O)c2ccc(-c3cncnc3)nc2)ccc1Br |
| 666 | CCn1c(=O)sc2cc(S(=O)(=O)N3CCC(C(=O)Nc4ncccc4C)CC3)ccc21 |
| 956 | CN1C(=O)c2cc(C(=O)N3CCC(C(N)=O)CC3)nn2CC1(C)C(=O)NC1CCCCCC1 (stereo unspecified) |
| 879 | CC(=O)N1c2ccc(S(=O)(=O)N3CCCCC3)cc2CC1C(=O)NCc1ccc(N(C)C)cc1 (stereo unspecified) |
| 872 | COc1ccc(CCC(=O)N2CCC3(C2)C(=O)N(C)c2ccccc23)cc1 (stereo unspecified) |
| 1080 | COc1ccc(C(=O)Nc2nc3c(s2)CCc2cc(OC)ccc2-3)cc1 |
